Test: Precipitate formation of polyquaternium-1 with hyaluronic acid
Assay type: physicochemical
Text: One of the more common quaternary ammonium compounds is α-[4-tris(2-hydroxyethyl)-ammonium chloride-2-butenyl]poly[1-dimethyl ammonium chloride-2-butenyl]-ω-tris(2-hydroxyethyl) ammonium chloride, also referred to in the art as polyquaternium-1. Quaternary ammonium compounds are generally referred to in the art as “polyquaternium” disinfectants, and are identified by a particular number following the designation such as polyquaternium-1, polyquaternium-10 or polyquaternium-42. Polyquaternium-1 is present in the ophthalmic compositions from 0.5 ppm to 3 ppm. […] The precipitate is believed to be the complexation product of hyaluronic acid and polyquaternium-1.

α-[4-tris(2-hydroxyethyl)-ammonium chloride-2-butenyl]poly[1-dimethyl ammonium chloride-2-butenyl]-ω-tris(2-hydroxyethyl) ammonium chloride [polyquaternium-1]
concentration of polyquaternium-1 in the compositions that results in formation of a precipitate: > 3 ppm
